Assay results taken from US20050271721A1, “Carvedilol-hydrophilic solutions” (priority 2000, published 2005).

What was measured:
[1] = solubility of carvedilol in aqueous media; type: physicochemical; conditions: about pH 1-2
[2] = resorption after peroral administration of rapid release carvedilol formulations; type: in vivo; conditions: e.g. the commercial formulation
From the text: In the case of the peroral administration of rapid release carvedilol formulations, e.g. the commercial formulation, resorption quotas of up to 80% are achieved, with a considerable part of the resorbed carvedilol being very rapidly metabolized.

[3] = investigations into the gastrointestinal resorption of carvedilol; type: in vivo; conditions: passage through the gastrointestinal tract
[4] = dissolution of carvedilol in melted polyethylene glycol 6,000; type: physicochemical; conditions: polyethylene glycol 6,000 melted at about 70° C.
Protocol: Thus, carvedilol can be dissolved in polyethylene glycol 6,000 which is melted at about 70° C. In this manner there are obtained highly concentrated solutions of carvedilol (up to 500 mg/ml), with the carvedilol being present distributed as a molecular dispersion in the solution. Moreover, further additives, for example cellulose derivatives such as hydroxypropylmethylcelluloses or hydroxypropylcelluloses, can be admixed in order to control the release rate of the active substance. Further, the compositions in accordance with the invention can contain highly dispersed silicon dioxide as an anti-caking agent.

SMILES: COc1ccccc1OCCNCC(O)COc1cccc2[nH]c3ccccc3c12 (stereo not shown) [carvedilol, 1-(4-carbazolyloxy)-3-[2-(2-methoxyphenoxy)ethyl-amino]-2-propanol]
- solubility in the strongly acidic region [1]: very low solubility
- resorption quota [2]: up to 80%
- resorption in the ileum and colon relative to the stomach [3]: only a fraction of the resorption in the stomach
- concentration of the carvedilol solution (molecular dispersion) [4]: up to 500 mg/ml
